Data: patent publication US12203060B1, “Cell culture” (FIBROFIND IP LIMITED, priority 2015, dated 2025)

Key:
[1] = tested on: precision cut liver slices (PCLS); assay: Albumin production by precision cut liver slices cultured on CMR2 (albumin ELISA); assay type: cell-based; settings: PCLS on CMR2, fat, fat+LPS or BSA vehicle for 48 h after a 24 h rest period; FIG. 27
Procedure: (§1) Liver tissue was placed in a 10 cm dish containing Hanks Buffered Saline Solution (HBSS+, Lonza, BE10-508F). Four to eight mm cores of liver tissue were made using a Stiefel Biopsy Punch. Cores were then transferred to a metal mould and submerged in 2.5-3.0% low gelling temperature agarose (Sigma, A9414) and then placed on ice for 2-5 minutes.
(§2) Once set, the cores in agarose were super-glued to a vibratome mounting stage and submersed in the media chamber in ice cold HBSS+prior to cutting on a Leica VT1200 S fully automated vibrating blade microtome. Liver tissue cores were cut at a speed of 0.3 mm/see, and an amplitude 2 mm and thickness (step size) of 250 μm. Slices having a thickness of between 200-400 μm can be used.
Slices were transferred to 3 μm, 8 μm or 100 μm pore inserts provided in static (Griener) or CMR tissue culture plates. […]
100 μl of the slice culture media diluted 1:250 was removed from wells comprising slices in either a static culture plate, a unidirectional system or the CMR culture plate apparatus which was rocked using a rocking apparatus as described herein. The media was used to quantify albumin release using the Rat Albumin ELISA Quantitation Set (catalogue number E110-125) or Human Albumin ELISA Quantitation Set (catalogue number E80-129) following manufacturer's instructions.

[2] = tested on: precision cut liver slices (PCLS); assay: Expression of fibrosis genes in precision cut liver slices cultured on CMR2; assay type: cell-based; settings: for expression of fibrosis genes (pro-collagen 1, aSMA, TIMP1): PCLS on CMR2, stimulated for 72 h after a 24 h rest period, FIG. 31
Procedure: as §1, §2
Slices were transferred to 3 μm, 8 μm or 100 μm pore inserts provided in static (Griener) or CMR tissue culture plates. The CMR tissue culture plates of embodiments of the invention comprised either holes between adjacent wells or were rapid prototyped from CAD design to comprise slots between wells. The wells contained slice culture media. The slices were cultured under static, unidirectional or rocked conditions at 37° C. in 5% carbon dioxide in a humidified tissue culture incubator. Twelve or twenty-four well CMR tissue culture plates were used, as indicated.
The slice culture media comprised the following components: • Williams Medium E (Sigma, W4128) • 2% Heat Inactivated Fetal Bovine Serum (Gibco) • Penicillin-Streptomycin (Sigma, P0781) • L-glutamine (Sigma, G7513) • Pyruvate (Sigma, S8636) • 0.5 uM Insulin/transferrin selenium mix (Gibco 51500-056) • 0.1 uM dexamethasone (Sigma, D4902) Urea Assay (Universal Biologicals Cambridge)

[3] = PCLS on CMR2, 3 ng/ml TGFb1 for 48 h, compared to control (untreated), FIG. 26B

Lipopolysaccharide [LPS]
albumin production [1]: did not affect

transforming growth factor beta 1 [TGFb1]
expression of the fibrosis gene alpha-smooth muscle actin (aSMA) [2, 3]: induced expression | expression of the fibrosis gene collagen I [2, 3]: induced expression | expression of the fibrosis gene tissue inhibitor of metalloprotease 1 (TIMP1) [2, 3]: induced expression

transforming growth factor beta [TGFb]
expression of fibrosis genes (pro-collagen 1, aSMA, TIMP1) [2]: induce expression

B1: platelet derived growth factor b (protein, UniProt P01127 82-190, looked up)
Platelet-derived growth …: SLGSLTIAEPAMIAECKTRTEVFEISRRLIDRTNANFLVWPPCVEVQRCSGCCNNRNVQCRPTQVQLRPVQVRKIEIVRKKPIFKKATVTLEDHLACKCETVAAARPVT
modifications: homodimer
notes: fibrosis-stimulating factor added to liver slices
expression of fibrosis genes (pro-collagen 1, aSMA, TIMP1) [2]: induce expression
